Measured values: ChEMBL document CHEMBL3507680, “University of Dundee, Gates Library screen for HepG2 cell viability”

assay: Human HepG2 cell viability assay in 384 well format; type: toxicity, cell-based; parameters: dose 125 nL, time 70.5 hour; cytotoxicity at 70.5 h: concentration not given beside the values; settings: HepG2 cells, read-out: Inhibition

SMILES	cytotoxicity at 70.5 h [%]
O=C(c1ccncc1)N1C[C@@H]2CC[C@H](C1)N(C(=O)N1CCOCC1)C2	-7.89
CCc1nc2n(n1)CC(NCc1nc(Cc3ccccc3)no1)CC2 (stereo not drawn)	25.4
CCOC(=O)c1cnn(-c2cc(Oc3ccccc3)ncn2)c1N	3.77
O=C(CC1CCN(c2ncnc3ccccc23)CC1)N1CCCC1	-6.95
COc1cc(NCCNC(=O)c2cc[nH]c2C)cc(OC)c1	3.9
CCC(CC)(CN)NC(C)c1ccccc1 (stereo not drawn)	-7.08
COc1ccc(C[C@H]2CNCC[C@@H]2OC)cc1	-5.86
CC(C)NC(=O)[C@H]1CN(Cc2ccccc2)C[C@@H]1C(=O)c1ccccc1	-1.04
CCc1ncc(C(=O)N(C)CC2Cc3ccccc3O2)cn1 (stereo not drawn)	25.4
O=C(NC1CCC1)C1=NOC2(CCN(Cc3ccc(F)cc3)C2)C1 (stereo not drawn)	14.1
CCS(=O)(=O)NCC1Cn2nnc(-c3ccccc3)c2CO1 (stereo not drawn)	-1.57
COCCCN1CCN([C@@H]2c3ccccc3C3(CCNCC3)[C@H]2O)CC1	0.267
COc1c(C)cnc(CNC(=O)c2cc(C)nc3c2c(C)nn3C)c1C	-6.5
C1CCCN(c2nc(C3CC3)no2)CC1	1.49
Cc1ccsc1C(=O)N1CCn2cnc(COCC3CC3)c2C1	-4.7
Cc1noc(C2CCC3(CCN(C(=O)c4c(C)noc4C)CC3)O2)n1 (stereo not drawn)	-5.47
Nc1no[n+]([O-])c1C(=O)NCc1cccnc1	-0.714
CCS(=O)(=O)CCSc1cccc(C#N)c1	-23.7
COCC(=O)N1CCC(c2cccc(Cc3ccc(F)cc3)n2)CC1	-6.39
Cc1nccn1-c1nccnc1C1CCCN(C2CCCC2)C1 (stereo not drawn)	14.2
CCc1cnc(N2CCN(Cc3ccno3)CC2)s1	-1.37
Cc1nnc(N2CCN(C)C3(CCC(=O)N(CCO)CC3)C2)s1 (stereo not drawn)	22.1
Cc1nc(C)n(CCCNc2ncnc3onc(C)c23)n1	-3.47

SMILES	cytotoxicity at 70.5 h [%]
CC(NCc1cccc(C#N)c1)c1ccccn1 (stereo not drawn)	-6.12
COCCC(=O)N1CC[C@H]2O[C@@H](C)C[C@H]2C1	-7.16
Cc1ccc2c(n1)N(CCN(C)C)CCN(C(=O)c1ccco1)C2	-4.83
CCOCC(=O)N1CSCC1C(=O)N(C)Cc1ccco1 (stereo not drawn)	15.7
Cc1nnn2c1COC(CNCc1nccs1)C2 (stereo not drawn)	2.74
O=C1CO[C@H]2CN(C3CCOCC3)C[C@H]2N1Cc1ccncc1	0.0501
CC(C)NC(=O)N1CCC2(CCC(=O)N2CCN2CCCC2)CC1	-9.28
CCc1c(C(=O)N2CCN(c3ncccn3)CC2)cnn1C(C)(C)C	-2.98
COc1cccc(C(=O)N2CCN(C(=O)CCn3ccnc3)CC2)c1	-5.33
CN1CCOC(CNCCOc2cccc(C#N)c2)C1 (stereo not drawn)	-7.36
NC(=O)N1C[C@H]2CN(Cc3nccs3)C[C@H]2C1	-18.2
C1CCC(c2nc3c(c(N4CC(N5CCOCC5)C4)n2)CCNCC3)C1	-8.17
CN(C)c1cc(C(=O)NCC2(c3ccc(F)cc3)CC2)ccn1	-1.65
Cc1noc(C)c1CN1CCC2(CC1)CCN(C(=O)c1cscn1)C2	10.4
COCCNC(=O)C1CC(=O)N(c2n[nH]c3cccc(F)c23)C1 (stereo not drawn)	-25
CCCc1noc(CN2CCC(c3ccnn3CCO)CC2)n1	-0.994
CCCc1csc(-c2ccc(S(C)(=O)=O)cc2)n1	-1.59
O=C(CCCOc1ccc(F)cc1F)N1CCCC(n2cccn2)C1 (stereo not drawn)	-3.24
CN(C)c1ccccc1C(=O)N1C[C@@H](CN2CCOCC2)[C@@H](CO)C1	-3.02
CC[C@H]1N(Cc2ccc(OC)cc2)CCC[C@]12CCC(=O)N2C	-13
CCN(CC(=O)Nc1c(C)nn(C)c1C)CC(O)c1ccc(C)cc1 (stereo not drawn)	-5.69
O=C(CCc1ccsc1)NS(=O)(=O)Cc1ccon1	-0.591
Cn1nnnc1SC1CCN(c2ccccc2Cl)C1=O (stereo not drawn)	-2.66

SMILES	cytotoxicity at 70.5 h [%]
CC(C)COCC1CN(C(=O)c2cscn2)Cc2ncn(C)c21 (stereo not drawn)	-6.45
O=C(c1cscn1)N1CCc2ncc(CN3CCOCC3)n2CC1	-15.7
Cc1cc(CN2CCN(S(=O)(=O)c3c(C)c(Cl)cc(C)c3Cl)CC2)on1	-9.59
COc1cccc(Nc2nc(C3CCNCC3)c3ccccn23)c1	-2.27
O=C(c1ccc[nH]1)N1CCCC1c1nc(-c2ccccc2)n[nH]1 (stereo not drawn)	-1.48
c1cncc(-c2noc(C3CN(Cc4cccs4)C3)n2)c1	-12.2
CCc1cc(NC2CCN(S(C)(=O)=O)CC2)n2nc(C)c(C)c2n1	-1.04
CN(C)CC(=O)N1CCc2sc(C(=O)NCC3CC3)cc21	-12.2
CCn1ncc2c1C(COC)CN(Cc1cnn(C)c1)C2 (stereo not drawn)	8.92
CCC(=O)Nc1cccc(OCC(=O)N(C)Cc2nccn2CC)c1	-2.37
CN(C)C(=O)CN1CCCC12CCCN(c1ncc(F)cn1)C2 (stereo not drawn)	-4.71
CC(OCC1CC1)C(=O)Nc1cccc(C(=O)Nc2ccncc2)c1 (stereo not drawn)	-10.9
CCc1ncncc1C(=O)N1CCCN(Cc2ccc(C#N)cc2)CC1	-10.9
CCN(Cc1nccn1C)C(=O)c1ccc(NCc2cnn(C)c2)nc1	-3.96
CCOc1ccccc1CC(=O)N1CCCC(c2ncc[nH]2)C1 (stereo not drawn)	-0.431
Cc1ccc(CN2CCn3c(CNC(=O)c4cccn4C)cnc3C2)s1	-10.3
O=C(CCOc1ccccc1F)N1CCCC(n2cncn2)C1 (stereo not drawn)	6.03
N#Cc1ccccc1CN1C[C@H]2CC[C@@H]1CN(C(=O)c1cccnc1)C2	-10.2
O=C(c1ccc[nH]1)N1CCC2(CCCN2Cc2cccnc2)CC1	0.719
COc1cccc(-c2cc(C(=O)NCCCn3nc(C)cc3C)[nH]n2)c1	-1.83
Cc1nc(C2(NCC(=O)NC(=O)NCc3cccs3)CCCCC2)no1	-12.5
COC(=O)CNC(=O)C(C(C)C)n1cnc2cc(F)c(F)cc21 (stereo not drawn)	5.81
NC(=O)Cn1cc(NC(=O)NCC2CCN(c3ccccc3)C2)cn1 (stereo not drawn)	-8.01

SMILES	cytotoxicity at 70.5 h [%]
c1ccc(-c2nc(CNCCn3cccn3)cs2)nc1	19.2
COCC1CN(C(=O)COc2ccc(C)cc2)Cc2cn(C)nc21 (stereo not drawn)	-2.9
Cc1cnc(CCNC(Cc2ccncc2)C(F)(F)F)s1 (stereo not drawn)	-7.12
O=C1CCC(c2ccc(Cl)cc2)=NN1CN1CCSCC1	-15.1
Cc1ccc(CN2CCCC3(CCCC(=O)N3)C2)s1 (stereo not drawn)	-8.14
CCCN(C)C(=O)c1ccc2c(c1)[nH]c(=O)n2CCOCC	13.7
CCCNC(=O)C(C)Nc1cccc(Oc2ccc(C#N)cn2)c1 (stereo not drawn)	24.3
COCC1CCCN(C(=O)c2ccc(NC(=O)CC(C)C)c(C)c2)C1 (stereo not drawn)	-17.4
Cc1cccc(CN2C[C@@H]3CCCO[C@@H]3[C@H](Nc3ccccn3)C2)n1	1.63
c1cnc(N2CC3(CCN(C4CCOCC4)CC3)c3ccccc32)nc1	-0.647
CN1CC[C@H]2CN(C(=O)c3csc(Cc4ccccc4)n3)C[C@H]21	-5.61
CNC(=O)c1cccc(NC(=O)Cn2nc(-c3cccs3)oc2=O)c1	20.9
COc1nc2c(cc1C(=O)N1C[C@H](N)C[C@H]1C(=O)NC(C)C)CCC2	-4.1
CCn1c(N)nc2cc(C(=O)NCCc3nnc(C)s3)cnc21	-24.8
c1ccc(CCN2CCN(c3ccc4nncn4n3)CC2)cc1	-1.86
CCn1cc(NC(=O)NCCN2CCCc3ccccc32)cn1	0.821
COc1ccc(Cl)cc1CCNC(=O)NCc1ccncc1	-0.665
CNC(=O)C(C)(C)N1CCC[C@H]1C(=O)NCCN1CCOCC1	-6.76
CCCS(=O)(=O)NC(C)C(=O)NCc1ccnc(N2CCCC2)c1 (stereo not drawn)	-3.25
Cc1cc(-c2cnc(NC3CC3)nc2-c2ccco2)on1	-12.6
Cn1nc(C2CCN(C(=O)c3cccs3)CC2)c2cccnc21	-4.94
COCC(=O)N1CCC[C@]2(C(=O)N(C)C)CN(c3ccccn3)C[C@@H]2C1	-5.67
CN(C)CCN(Cc1ccc(C(F)(F)F)cc1)C(=O)c1cc[nH]n1	16.2

SMILES	cytotoxicity at 70.5 h [%]
O=C(CC1CCCCC1)N1C[C@H]2CC[C@@H]1CN(Cc1cccnc1)C2	-13.3
CC(C)c1cc(CN2CCC(CC(=O)O)CC2)no1	-2.18
O=C(O)CC1COCCN1Cc1ccccc1-c1ccccc1 (stereo not drawn)	14.8
CCN(CC)C(=O)Cn1cc(C(=O)NCCCc2scnc2C)nn1	-4.02
COCC1CN(C(=O)Cc2cccs2)Cc2nnn(CC3CC3)c21 (stereo not drawn)	2.3
CC(NC(=O)NC1CC1)c1nc(-c2ccccc2)cs1 (stereo not drawn)	-8.69
CC(C)(C)CN1CCCC12CCN(S(=O)(=O)c1ccccc1)C2 (stereo not drawn)	-2.83
CC(C)N1CCCC(C(=O)N2CCc3c(nc(CC4CC4)[nH]c3=O)C2)C1 (stereo not drawn)	3.48
Cc1nn(Cc2ccc(C(=O)NCCCN3CCCC3=O)o2)c(C)c1Br	-7.69
CCSCc1cccc(NC2CCN(C)C2=O)c1 (stereo not drawn)	19.7
Cn1nccc1CNS(=O)(=O)c1cc(F)ccc1Br	-6.89
COCC1N(C(=O)c2ccco2)[C@H]2CC[C@]1(O)CC2 (stereo partly drawn)	-2.24
CCc1nc(CN(C)C2CCN(CC(=O)N3CCOCC3)C2)no1 (stereo not drawn)	-1.36
CN(C)CC(=O)N1CCOC2(CCCN(c3ncccc3F)C2)C1 (stereo not drawn)	4.23
CN1CCN(Cc2ccc(-c3ccc(C(N)=O)cc3)nc2)CC1	-7.94
COc1cccc(S(=O)(=O)N2CCC(O)(CN(C)C)C2)c1 (stereo not drawn)	-19.7
CCCc1cnc(C)nc1N1CCC2(CCCO2)CC1	-1.28
CCCN1CCCn2nc(CNS(=O)(=O)c3ccc(C)cc3)cc2C1	-6.85
COc1ccc(C(=O)N2C[C@@H](C(=O)O)[C@H](c3ccccc3)C2)c(O)c1	-8.78
Cc1nc(O)cc(C2CCCN2CCO)n1 (stereo not drawn)	-5.13
Cc1nc(C2CCCN2C(=O)CCn2cncn2)no1 (stereo not drawn)	-3.86
